Assay results as given in patent US20240109903A1, “SUBSTITUTED HETEROCYCLES FOR TREATING CANCER” (Northwestern University, priority 2022, published 2024).
Read-outs that look alike come from different tables or passages of the source.

Assays:
K-562 = test: NCI 60 five-dose screen K-562; format: cell-based; details: Homo sapiens
NCI-H23 = test: NCI 60 five-dose screen NCI-H23; format: cell-based; details: Homo sapiens
SK-MEL-28 = test: NCI 60 five-dose screen SK-MEL-28; format: cell-based; details: Homo sapiens
IGROV1 = test: NCI 60 five-dose screen IGROV1; format: cell-based; details: Homo sapiens
HOP-62 = test: NCI 60 five-dose screen HOP-62; format: cell-based; details: Homo sapiens
RXF 393 = test: NCI 60 five-dose screen RXF 393; format: cell-based; details: Homo sapiens
OVCAR-5 = test: NCI 60 five-dose screen OVCAR-5; format: cell-based; details: Homo sapiens
MOLT-4 = test: NCI 60 five-dose screen MOLT-4; format: cell-based; details: Homo sapiens
UACC-62 = test: NCI 60 five-dose screen UACC-62; format: cell-based; details: Homo sapiens
TK-10 = test: NCI 60 five-dose screen TK-10; format: cell-based; details: Homo sapiens
SR = test: NCI 60 five-dose screen SR; format: cell-based, human
HCC-2998 = test: NCI 60 five-dose screen HCC-2998; format: cell-based; details: Homo sapiens
M14 = test: NCI 60 five-dose screen M14; format: cell-based; details: Homo sapiens
MDA-MB-231/ATCC = test: NCI 60 five-dose screen MDA-MB-231/ATCC; format: cell-based; details: Homo sapiens
SF-539 = test: NCI 60 five-dose screen SF-539; format: cell-based; details: Homo sapiens
DU-145 = test: NCI 60 five-dose screen DU-145; format: cell-based; details: Homo sapiens
SNB-19 = test: NCI 60 five-dose screen SNB-19; format: cell-based; details: Homo sapiens
HCT-116 = test: NCI 60 five-dose screen HCT-116; format: cell-based; details: Homo sapiens
KM12 = test: NCI 60 five-dose screen KM12; format: cell-based; details: Homo sapiens
MALME-3M = test: NCI 60 five-dose screen MALME-3M; format: cell-based; details: Homo sapiens, Malme-3M
HS 578T = test: NCI 60 five-dose screen HS 578T; format: cell-based; details: Homo sapiens
UACC-257 = test: NCI 60 five-dose screen UACC-257; format: cell-based; details: Homo sapiens
U251 = test: NCI 60 five-dose screen U251; format: cell-based; details: Homo sapiens
[1] = tested on: MV-4-11 acute myeloid leukemia cells; test: CellTiter-Glo 2.0 cell viability, MV-4-11; format: cell-based; details: Homo sapiens
In short: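 MV4-11 cells plated at 3,000 cells/well on pre-dispensed compounds and incubated 3 days at 37 °C, 5% CO2. Viability read as ATP-dependent luminescence with CellTiter-Glo 2.0 after 20 min at ambient temperature, followed by regression analysis.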

[2] = read-out: LC50 (the source's name) (converted)
[3] = read-out: LC50 (the source's name)

## O=c1ccc(Cn2c(C(F)(F)F)cc3c(Cl)ncnc32)c[nH]1 [NUCC-0226698]
K-562; K562
  GI50: 2.82 µM
  IC50: 3.39 µM
  IC (TGI): 100 µM
K-562; K562, read-out: LC50 (the source's name)
  CC50: ≥ 100 µM
NCI-H23
  GI50: 3.98 µM
  IC50: 8.71 µM
  IC (TGI): 18.6 µM
NCI-H23; [2]
  CC50: 72.4 µM
SK-MEL-28
  GI50: 3.89 µM
  IC50: 7.59 µM
  IC (TGI): 18.6 µM
SK-MEL-28; [2]
  CC50: 66.1 µM
IGROV1; IGROV-1
  GI50: 2.29 µM
  IC50: 3.72 µM
  IC (TGI): 6.03 µM
IGROV1; IGROV-1, read-out: LC50 (the source's name) (converted)
  CC50: 26.3 µM
HOP-62
  GI50: 46.8 µM
  IC50: 100 µM
  IC (TGI): 100 µM
HOP-62; [2]
  CC50: ≥ 100 µM
RXF 393
  GI50: 11.2 µM
  IC50: 35.5 µM
  IC (TGI): 32.4 µM
RXF 393; [2]
  CC50: 91.2 µM
OVCAR-5
  GI50: 61.7 µM
  IC50: 100 µM
  IC (TGI): 100 µM
OVCAR-5; [2]
  CC50: ≥ 100 µM
MOLT-4
  GI50: 3.24 µM
  IC50: 4.79 µM
  IC (TGI): 17 µM
MOLT-4; [3]
  CC50: ≥ 100 µM
UACC-62
  GI50: 5.5 µM
  IC50: 11 µM
  IC (TGI): 20 µM
UACC-62; [2]
  CC50: 53.7 µM
TK-10
  GI50: ≥ 100 µM
  IC50: 100 µM
  IC (TGI): 100 µM
TK-10; [2]
  CC50: ≥ 100 µM
SR
  TGI: 4.93 −log[M]
SR; Homo sapiens
  GI50: 2.75 µM
  IC50: 3.89 µM
SR; Homo sapiens, read-out: LC50 (the source's name)
  CC50: ≥ 100 µM
HCC-2998
  GI50: 2.88 µM
  IC50: 5.25 µM
  IC (TGI): 10 µM
HCC-2998; [2]
  CC50: 34.7 µM
M14
  GI50: 4.07 µM
  IC50: 6.92 µM
  IC (TGI): 21.9 µM
M14; [2]
  CC50: ≥ 100 µM
MDA-MB-231/ATCC
  GI50: 4.68 µM
  IC50: 10 µM
  IC (TGI): 18.2 µM
MDA-MB-231/ATCC; [2]
  CC50: 57.5 µM
SF-539
  GI50: 17.4 µM
  IC50: 32.4 µM
  IC (TGI): 40.7 µM
SF-539; [2]
  CC50: 95.5 µM
DU-145
  GI50: 38.9 µM
  IC50: 61.7 µM
  IC (TGI): 100 µM
DU-145; [2]
  CC50: ≥ 100 µM
SNB-19
  GI50: 20.9 µM
  IC50: 39.8 µM
  IC (TGI): 58.9 µM
SNB-19; [2]
  CC50: ≥ 100 µM
HCT-116
  GI50: 3.55 µM
  IC50: 4.17 µM
  IC (TGI): 29.5 µM
HCT-116; [2]
  CC50: ≥ 100 µM
KM12
  GI50: 17.8 µM
  IC50: 30.2 µM
  IC (TGI): 39.8 µM
KM12; [2]
  CC50: 91.2 µM
MALME-3M
  GI50: 15.8 µM
  IC50: 36.3 µM
  IC (TGI): 34.7 µM
MALME-3M; [2]
  CC50: 77.6 µM
HS 578T
  GI50: 8.71 µM
  IC50: 100 µM
  IC (TGI): 50.1 µM
HS 578T; [3]
  CC50: ≥ 100 µM
UACC-257
  GI50: 3.16 µM
  IC50: 6.46 µM
  IC (TGI): 12.9 µM
UACC-257; [2]
  CC50: 75.9 µM
U251; U-251
  GI50: 22.4 µM
  IC50: 33.1 µM
  IC (TGI): 69.2 µM
U251; U-251, read-out: LC50 (the source's name) (converted)
  CC50: ≥ 100 µM
[1]; MV4-11, 72 h, MV-4-11 cells, 3 days, CellTiter-Glo 2.0, read-out: IC50 (uM) [Cell Type: MV-4-11]
  IC50: 1.26 µM
[1]; MV4-11, bound stated in text, read-out: IC50 against MV-4-11 acute myeloid leukemia cells
  IC50: < 2 µM
